The assay has as its target T1, prostanoid EP3 receptors (Homo sapiens, UniProt P43115).
T1 sequence (P43115 1-390): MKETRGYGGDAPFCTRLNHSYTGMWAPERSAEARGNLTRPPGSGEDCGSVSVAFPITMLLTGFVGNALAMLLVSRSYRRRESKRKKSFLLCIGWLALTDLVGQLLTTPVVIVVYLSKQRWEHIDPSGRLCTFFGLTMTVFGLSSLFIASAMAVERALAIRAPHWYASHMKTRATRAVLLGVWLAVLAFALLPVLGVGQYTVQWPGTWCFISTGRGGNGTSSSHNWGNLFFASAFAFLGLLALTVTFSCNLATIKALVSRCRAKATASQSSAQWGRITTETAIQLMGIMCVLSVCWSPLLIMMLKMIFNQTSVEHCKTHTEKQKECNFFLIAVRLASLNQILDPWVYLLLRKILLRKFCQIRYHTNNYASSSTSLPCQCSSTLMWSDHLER
The assay can be described thus: binding on prostanoid EP3 receptors (method of Abramovitz et al.). The following applies: Chart 1, read-out: Activity (EP3 receptor binding IC50 class). Here is the method: The compounds of the invention were assayed for their binding on prostanoid EP3 receptors according to the method of Abramovitz et al. [Bioch. Biophys. Acta, 1473, 285-293 (2000)]. […] Compounds with IC50<1 μM are shown as +++; compounds with IC50 1-10 μM are shown as ++; and compounds with IC50>10 μM are shown as +.
The compounds of the invention were assayed for their binding on prostanoid EP3 receptors according to the method of Abramovitz et al. [Bioch. Biophys. Acta. 1473, 285-293 (2000)]. […] Compounds with IC50<1 μM are shown as +++; compounds with IC50 1-10 μM are shown as ++; and compounds with IC50>10 μM are shown as +.
One may read the IC50 as the concentration at which inhibition is half-maximal. As to `Cn1cc(/C=C/C(=O)O)c2c(Oc3ccc(Cl)cc3)cccc21` [Compound A41, (E)-3-[4-(4-Chloro-phenoxy)-1-methyl-1H-indol-3-yl]-acrylic acid], the concentration for half-maximal inhibition (IC50) lay in the range of 1000 to 10000 nM.
The figure for `Cn1cc(/C=C/C(=O)O)c2c(Oc3ccc(F)c(F)c3)cccc21` [Compound A42, (E)-3-[4-(3,4-Difluoro-phenoxy)-1-methyl-1H-indol-3-yl]-acrylic acid] is 1000 to 10000 nM; for `Cn1cc(/C=C/C(=O)O)c2c(Oc3ccc(Cl)c(F)c3)cccc21` [Compound A43, (E)-3-[4-(4-Chloro-3-fluoro-phenoxy)-1-methyl-1H-indol-3-yl]-acrylic acid] it is < 1000 nM.
The figure for `Cn1cc(/C=C/C(=O)O)c2c(Oc3ccc4ccccc4c3)cccc21` [Compound A44, (E)-3-[1-Methyl-4-(naphthalen-2-yloxy)-1H-indol-3-yl]-acrylic acid] is < 1000 nM; for `Cn1cc(/C=C/C(=O)O)c2c(Oc3ccc(Cl)cc3F)cccc21` [Compound A45, (E)-3-[4-(4-Chloro-2-fluoro-phenoxy)-1-methyl-1H-indol-3-yl]-acrylic acid] it is < 1000 nM; for `Cn1cc(/C=C/C(=O)O)c2c(Oc3ccc(F)cc3Cl)cccc21` [Compound A46, (E)-3-[4-(2-Chloro-4-fluoro-phenoxy)-1-methyl-1H-indol-3-yl]-acrylic acid] it is 1000 to 10000 nM.
With `CCOC(=O)C12CCCC(/C=C/C(=O)O)=C1N(Cc1ccc(Cl)cc1Cl)C(=O)C2` (stereo not shown) [Compound A47, 7-((E)-2-Carboxy-vinyl)-1-(2,4-dichloro-benzyl)-2-oxo-1,2,3,4,5,6-hexahydro-indole-3a-carboxylic acid ethyl ester] the figure was < 1000 nM; with `CC12CCCC(CCC(=O)O)C1N(Cc1ccc(F)c(F)c1)C(=O)C2` (stereo not shown) [Compound A49, 3-[1-(3,4-Difluoro-benzyl)-3a-methyl-2-oxo-octahydro-indol-7-yl]-propionic acid], 1000 to 10000 nM; with `CC12CCCC(CCC(=O)O)=C1N(Cc1ccc(F)c(F)c1)C(=O)C2` (stereo not shown) [Compound A50, 3-[1-(3,4-Difluoro-benzyl)-3a-methyl-2-oxo-2,3,3a,4,5,6-hexahydro-1H-indol-7-yl]-propionic acid], 1000 to 10000 nM.
In the case of `O=C(O)C(=O)Nc1cccc2c1N(Cc1ccc3ccccc3c1)C(=O)CO2` [Compound A51, N-(4-Naphthalen-2-ylmethyl-3-oxo-3,4-dihydro-2H-benzo[1,4]oxazin-5-yl)-oxalamic acid], the 50% inhibitory concentration (IC50) was > 10000 nM.
The figure for `O=C(O)/C=C/c1cccc2ccn(Cc3ccc4ccccc4c3)c12` [Compound A53, (E)-3-(1-Naphthalen-2-ylmethyl-1H-indol-7-yl)-acrylic acid] is < 1000 nM.
For the compound `CN(C)Cc1cn(Cc2ccc3ccccc3c2)c2c(/C=C/C(=O)O)cccc12` [Compound A55], the concentration for half-maximal inhibition (IC50) was 1000 to 10000 nM.
For `O=C(O)/C=C/c1cccc2c1N(Cc1ccc3ccccc3c1)C(=O)C2=O` [Compound A56, (E)-3-(1-Naphthalen-2-ylmethyl-2,3-dioxo-2,3-dihydro-1H-indol-7-yl)-acrylic acid], the IC50 is < 1000 nM.
With `Cc1cn(Cc2cn3ccccc3n2)c2c(/C=C/C(=O)O)cc(F)cc12` [Compound A57, (E)-3-(5-Fluoro-1-imidazo[1,2-a]pyridin-2-ylmethyl-3-methyl-1H-indol-7-yl)-acrylic acid], the IC50 fell in the range of 1000 to 10000 nM.
With `O=C(O)CCc1cccc2ccn(Cc3ccc4ccccc4c3)c12` [Compound A58, 3-(1-Naphthalen-2-ylmethyl-1H-indol-7-yl)-propionic acid] the figure was < 1000 nM.
`O=C(O)/C=C/c1cccc2c1N(Cc1ccc(F)c(F)c1)C(=O)C2=O` [Compound A60, (E)-3-[1-(3,4-Difluoro-benzyl)-2,3-dioxo-2,3-dihydro-1H-indol-7-yl]-acrylic acid]: the IC50 is 1000 to 10000 nM.
The figure for `O=C(O)/C=C/c1cccc2c1N(Cc1ccc(Cl)cc1Cl)C(=O)C2(CO)CO` [Compound A62, (E)-3-[1-(2,4-Dichloro-benzyl)-3,3-bis-hydroxymethyl-2-oxo-2,3-dihydro-1H-indol-7-yl]-acrylic acid] is < 1000 nM.
The figure for `Cc1cc2c(=O)n(C)c(=O)n(CCC(=O)O)c2n1Cc1ccc(Cl)cc1Cl` [Compound A63, 3-[7-(2,4-Dichloro-benzyl)-3,6-dimethyl-2,4-dioxo-2,3,4,7-tetrahydro-pyrrolo[2,3-d]pyrimidin-1-yl]-propionic acid] is 1000 to 10000 nM.
With `Cc1cn(Cc2ccc(Cl)cc2Cl)c2c(/C=C/C(O)(C(F)(F)F)C(F)(F)F)cc(F)cc12` [Compound A64, (E)-4-[1-(2,4-Dichloro-benzyl)-5-fluoro-3-methyl-1H-indol-7-yl]-1,1,1-trifluoro-2-trifluoromethyl-but-3-en-2-ol] the figure was 1000 to 10000 nM.
